Here are results for 3 molecules from US6359141B2, “Water soluble prodrugs of azole compounds” (Bristol-Myers Squibb Company, priority 1998, dated 2002).

Each structure is given as a SMILES string.

Data set [1] can be described thus: Release of parent in human plasma. It is filed as in vitro ADME. To be noted: prodrug conversion to bioactive parent.

Regarding `C[C@@H](c1nc(-c2ccc(C#N)cc2)cs1)[C@](O)(Cn1cncn1)c1ccc(F)cc1F` [Parent, (2R,3R)-3-[4-(4-cyanophenyl)thiazol-2-yl]-2-(2,4-difluorophenyl)-1-(1H-1,2,4-triazol-1-yl)-butan-2-ol], the solubility in “physchem” was below 6 µg/mL. Regarding `CCN(CC)Cc1ccc(C(=O)OCO[C@@](Cn2cncn2)(c2ccc(F)cc2F)[C@@H](C)c2nc(-c3ccc(C#N)cc3)cs2)cc1` [Example 1, (2R,3R)-3-[4-(4-cyanophenyl)thiazol-2-yl]-2-(2,4-difluorophenyl)-1-(1H-1,2,4-triazol-1-yl)-2-[[p-(N,N-diethylaminomethyl)benzoyloxy]methoxy]butane], the “Release of Parent in Human Plasma” value in data set [1] is listed as “Yes”. In the data set “Solubility”, the solubility is above 1000 µg/mL. With `C[C@@H](c1nc(-c2ccc(C#N)cc2)cs1)C(Cn1cncn1)(OP(=O)([O-])[O-])c1ccc(F)cc1F.[Na+].[Na+]` (some centres unmarked) [Example 7 of WO 97/28169], the “Release of Parent in Human Plasma” value in data set [1] is “No”. The molecule further registered a solubility in the data set “Solubility” above 1000 µg/mL.
